From US11826399B2, “Chlorotoxin agents and uses thereof” (Eisai Inc., priority 2017, dated 2023)
Several values for one entry are separate records, joined by “and”; a condition that tells them apart may be missing. Identical values can stand only once.

Experiment: Plasma and tissue distribution of Cryptophycin Payload and Cryptophycin Metabolite 1 after Cryptophycin Payload alone or with CTX in PC-3 xenograft nude mice (LC-MS/MS)
Format: in vivo, mouse
Method: For the present experiment, materials, methods, drugs and model were as described in Example 21. […] Following intravenous administration, whole blood samples were collected at predetermined time points via cardiac puncture (n=3 mice per time point). Blood samples were centrifuged to obtain plasma and subsequently stored at […] or lower pending analysis. Additionally, at each time point, kidney, liver, small intestine, brain, heart, and tumor were harvested by removing entire specimen from surrounding tissues (only a portion of liver and small intestine were removed). After removal, tissues were rinsed with normal saline solution (contents of small intestine were emptied) and blotted dry with clean adsorptive tissue. Once dried, the specimens were weighed and stored at −20° C. or lower pending analysis. […] Pharmacokinetic (PK) parameters were calculated. Mean plasma and tissue concentrations were used to calculate mean PK parameters. Skin and skeletal muscle which were not assessed due to difficulty of homogenization.
Vehicle for single dose group was 10% ethanol, 5% Tween 80, 85% saline. Vehicle for combination treatment was 5% ethanol, 2.5% Tween 80, 92.5% saline.

[1] = Brain, Payload 0.4 mg/kg + CTX 16 mg/kg IV
[2] = Brain, Payload 0.4 mg/kg IV alone
[3] = Heart, Payload 0.4 mg/kg + CTX 16 mg/kg IV
[4] = Heart, Payload 0.4 mg/kg IV alone
[5] = Kidney, Payload 0.4 mg/kg + CTX 16 mg/kg IV
[6] = Kidney, Payload 0.4 mg/kg IV alone
[7] = Liver, Payload 0.4 mg/kg + CTX 16 mg/kg IV
[8] = Liver, Payload 0.4 mg/kg IV alone
[9] = Payload 0.4 mg/kg + CTX 16 mg/kg IV, 0.083 h
[10] = Payload 0.4 mg/kg + CTX 16 mg/kg IV, 0.5 h
[11] = Payload 0.4 mg/kg + CTX 16 mg/kg IV, 1 h
[12] = Payload 0.4 mg/kg + CTX 16 mg/kg IV, 2 h
[13] = Payload 0.4 mg/kg + CTX 16 mg/kg IV, 6 h
[14] = Payload 0.4 mg/kg + CTX 16 mg/kg IV, 24 h
[15] = Payload 0.4 mg/kg IV alone, 0.083 h
[16] = Payload 0.4 mg/kg IV alone, 0.5 h
[17] = Payload 0.4 mg/kg IV alone, 1 h
[18] = Payload 0.4 mg/kg IV alone, 2 h
[19] = Payload 0.4 mg/kg IV alone, 6 h
[20] = Payload 0.4 mg/kg IV alone, 24 h
[21] = Plasma, Payload 0.4 mg/kg + CTX 16 mg/kg IV
[22] = Plasma, Payload 0.4 mg/kg IV alone
[23] = Small Intestine, Payload 0.4 mg/kg + CTX 16 mg/kg IV
[24] = Small Intestine, Payload 0.4 mg/kg IV alone
[25] = Tumor, Payload 0.4 mg/kg + CTX 16 mg/kg IV
[26] = Tumor, Payload 0.4 mg/kg IV alone

CCCCNC(=O)Cc1ccccc1SSC(C)(C)CCN1CCN(Cc2ccc(C3OC3C(C)C3CC=CC(=O)NC(Cc4ccc(OC)c(Cl)c4)C(=O)NCC(C)(C)C(=O)NC(CC(C)C)C(=O)O3)cc2)CC1 (stereo not drawn) [Cryptophycin Payload]
AUC(0-t) of Cryptophycin Payload [1]: 3.69 ng·h/g
tmax of Cryptophycin Payload [1]: 4.8 min
TPI of Cryptophycin Payload (Brain, Payload 0.4 mg/kg + CTX 16 mg/kg IV, AUC0-2 h tissue/AUC0-2 h plasma): 0.0315 mL/g and 0.0315^d mL/g
AUC(0-inf) of Cryptophycin Payload [2]: 3.57 ng·h/g
AUC(0-t) of Cryptophycin Payload [2]: 3.02 ng·h/g
t1/2 of Cryptophycin Payload [2]: 56.5 min
tmax of Cryptophycin Payload [2]: 4.98 min and 4.8 min
TPI of Cryptophycin Payload (Brain, Payload 0.4 mg/kg IV alone, AUC0-2 h tissue/AUC0-2 h plasma): 0.0208 mL/g and 0.0208^d mL/g
AUC(0-inf) of Cryptophycin Payload [3]: 62.0 ng·h/g
AUC(0-t) of Cryptophycin Payload [3]: 59.2 ng·h/g
t1/2 of Cryptophycin Payload [3]: 86.4 min
tmax of Cryptophycin Payload [3]: 4.8 min
TPI of Cryptophycin Payload (Heart, Payload 0.4 mg/kg + CTX 16 mg/kg IV, AUC0-inf tissue/AUC0-inf plasma): 0.481 mL/g
AUC(0-inf) of Cryptophycin Payload [4]: 38.9 ng·h/g
AUC(0-t) of Cryptophycin Payload [4]: 36.8 ng·h/g
t1/2 of Cryptophycin Payload [4]: 103 min
tmax of Cryptophycin Payload [4]: 4.98 min and 4.8 min
TPI of Cryptophycin Payload (Heart, Payload 0.4 mg/kg IV alone, AUC0-inf tissue/AUC0-inf plasma): 0.253 mL/g
AUC(0-inf) of Cryptophycin Payload [5]: 1230 ng·h/g
AUC(0-t) of Cryptophycin Payload [5]: 1210 ng·h/g
t1/2 of Cryptophycin Payload [5]: 251 min
tmax of Cryptophycin Payload [5]: 30 min
TPI of Cryptophycin Payload (Kidney, Payload 0.4 mg/kg + CTX 16 mg/kg IV, AUC0-inf tissue/AUC0-inf plasma): 9.53 mL/g
AUC(0-inf) of Cryptophycin Payload [6]: 826 ng·h/g
AUC(0-t) of Cryptophycin Payload [6]: 804 ng·h/g
t1/2 of Cryptophycin Payload [6]: 282 min
tmax of Cryptophycin Payload [6]: 4.98 min and 4.8 min
TPI of Cryptophycin Payload (Kidney, Payload 0.4 mg/kg IV alone, AUC0-inf tissue/AUC0-inf plasma): 5.36 mL/g
AUC(0-t) of Cryptophycin Payload [7]: 15.1 ng·h/g
tmax of Cryptophycin Payload [7]: 60 min
TPI of Cryptophycin Payload (Liver, Payload 0.4 mg/kg + CTX 16 mg/kg IV, AUC0-6 h tissue/AUC0-6 h plasma): 0.118 mL/g and 0.118^c mL/g
AUC(0-t) of Cryptophycin Payload [8]: 9.65 ng·h/g
tmax of Cryptophycin Payload [8]: 4.98 min and 4.8 min
TPI of Cryptophycin Payload (Liver, Payload 0.4 mg/kg IV alone, AUC0-6 h tissue/AUC0-6 h plasma): 0.0631 mL/g and 0.0631^c mL/g
Concentration of Cryptophycin Payload, Brain, Mean [9]: 3.97 ng/g
Concentration of Cryptophycin Payload, Heart, Mean [9]: 47.3 ng/g
Concentration of Cryptophycin Payload, Kidney, Mean [9]: 389 ng/g
Concentration of Cryptophycin Payload, Liver, Mean [9]: 3.89 ng/g
Concentration of Cryptophycin Payload, Plasma, Mean [9]: 268 ng/mL
Concentration of Cryptophycin Payload, Small Intestine, Mean [9]: 19.8 ng/g
Concentration of Cryptophycin Payload, Tumor, Mean [9]: 12.5 ng/g
Concentration of Cryptophycin Payload, Brain, Mean [10]: 2.09 ng/g
Concentration of Cryptophycin Payload, Heart, Mean [10]: 41.3 ng/g
Concentration of Cryptophycin Payload, Kidney, Mean [10]: 411 ng/g
Concentration of Cryptophycin Payload, Liver, Mean [10]: 7.13 ng/g
Concentration of Cryptophycin Payload, Plasma, Mean [10]: 37.9 ng/mL
Concentration of Cryptophycin Payload, Small Intestine, Mean [10]: 13.4 ng/g
Concentration of Cryptophycin Payload, Tumor, Mean [10]: 10.3 ng/g
Concentration of Cryptophycin Payload, Brain, Mean [11]: 2.07 ng/g
Concentration of Cryptophycin Payload, Heart, Mean [11]: 18.7 ng/g
Concentration of Cryptophycin Payload, Kidney, Mean [11]: 317 ng/g
Concentration of Cryptophycin Payload, Liver, Mean [11]: 7.13 ng/g
Concentration of Cryptophycin Payload, Plasma, Mean [11]: 43.8 ng/mL
Concentration of Cryptophycin Payload, Small Intestine, Mean [11]: 15.5 ng/g
Concentration of Cryptophycin Payload, Tumor, Mean [11]: 9.46 ng/g
Concentration of Cryptophycin Payload, Brain, Mean [12]: 0.703 ng/g
Concentration of Cryptophycin Payload, Heart, Mean [12]: 6.37 ng/g
Concentration of Cryptophycin Payload, Kidney, Mean [12]: 179 ng/g
Concentration of Cryptophycin Payload, Liver, Mean [12]: 2.13 ng/g
Concentration of Cryptophycin Payload, Plasma, Mean [12]: 7.53 ng/mL
Concentration of Cryptophycin Payload, Small Intestine, Mean [12]: 5.66 ng/g
Concentration of Cryptophycin Payload, Tumor, Mean [12]: 10.1 ng/g
Concentration of Cryptophycin Payload, Brain, Mean [13]: BLQ
Concentration of Cryptophycin Payload, Heart, Mean [13]: 1.39 ng/g
Concentration of Cryptophycin Payload, Kidney, Mean [13]: 35.9 ng/g
Concentration of Cryptophycin Payload, Liver, Mean [13]: 0.632 ng/g
Concentration of Cryptophycin Payload, Plasma, Mean [13]: 0.537 ng/mL
Concentration of Cryptophycin Payload, Small Intestine, Mean [13]: 0.873 ng/g
Concentration of Cryptophycin Payload, Tumor, Mean [13]: 2.80 ng/g
Concentration of Cryptophycin Payload, Brain, Mean [14]: BLQ
Concentration of Cryptophycin Payload, Heart, Mean [14]: BLQ
Concentration of Cryptophycin Payload, Kidney, Mean [14]: 3.39 ng/g
Concentration of Cryptophycin Payload, Liver, Mean [14]: BLQ
Concentration of Cryptophycin Payload, Plasma, Mean [14]: BLQ
Concentration of Cryptophycin Payload, Small Intestine, Mean [14]: BLQ
Concentration of Cryptophycin Payload, Tumor, Mean [14]: BLQ
Concentration of Cryptophycin Payload, Brain, Mean [15]: 8.32 ng/g
Concentration of Cryptophycin Payload, Heart, Mean [15]: 63.2 ng/g
Concentration of Cryptophycin Payload, Kidney, Mean [15]: 533 ng/g
Concentration of Cryptophycin Payload, Liver, Mean [15]: 6.02 ng/g
Concentration of Cryptophycin Payload, Plasma, Mean [15]: 493 ng/mL
Concentration of Cryptophycin Payload, Small Intestine, Mean [15]: 53.3 ng/g
Concentration of Cryptophycin Payload, Tumor, Mean [15]: 11.6 ng/g
Concentration of Cryptophycin Payload, Brain, Mean [16]: 1.42 ng/g
Concentration of Cryptophycin Payload, Heart, Mean [16]: 18.9 ng/g
Concentration of Cryptophycin Payload, Kidney, Mean [16]: 320 ng/g
Concentration of Cryptophycin Payload, Liver, Mean [16]: 1.92 ng/g
Concentration of Cryptophycin Payload, Plasma, Mean [16]: 36.3 ng/mL
Concentration of Cryptophycin Payload, Small Intestine, Mean [16]: 13.6 ng/g
Concentration of Cryptophycin Payload, Tumor, Mean [16]: 4.11 ng/g
Concentration of Cryptophycin Payload, Brain, Mean [17]: 0.673 ng/g
Concentration of Cryptophycin Payload, Heart, Mean [17]: 7.91 ng/g
Concentration of Cryptophycin Payload, Kidney, Mean [17]: 158 ng/g
Concentration of Cryptophycin Payload, Liver, Mean [17]: 3.32 ng/g
Concentration of Cryptophycin Payload, Plasma, Mean [17]: 11.0 ng/mL
Concentration of Cryptophycin Payload, Small Intestine, Mean [17]: 6.55 ng/g
Concentration of Cryptophycin Payload, Tumor, Mean [17]: 2.14 ng/g
Concentration of Cryptophycin Payload, Brain, Mean [18]: 0.436 ng/g
Concentration of Cryptophycin Payload, Heart, Mean [18]: 3.28 ng/g
Concentration of Cryptophycin Payload, Kidney, Mean [18]: 93.8 ng/g
Concentration of Cryptophycin Payload, Liver, Mean [18]: 1.29 ng/g
Concentration of Cryptophycin Payload, Plasma, Mean [18]: 5.30 ng/mL
Concentration of Cryptophycin Payload, Small Intestine, Mean [18]: 6.41 ng/g
Concentration of Cryptophycin Payload, Tumor, Mean [18]: 2.41 ng/g
Concentration of Cryptophycin Payload, Brain, Mean [19]: BLQ
Concentration of Cryptophycin Payload, Heart, Mean [19]: 0.885 ng/g
Concentration of Cryptophycin Payload, Kidney, Mean [19]: 20.4 ng/g
Concentration of Cryptophycin Payload, Liver, Mean [19]: 0.948 ng/g
Concentration of Cryptophycin Payload, Plasma, Mean [19]: 0.492 ng/mL
Concentration of Cryptophycin Payload, Small Intestine, Mean [19]: 2.17 ng/g
Concentration of Cryptophycin Payload, Tumor, Mean [19]: 1.03 ng/g
Concentration of Cryptophycin Payload, Brain, Mean [20]: BLQ
Concentration of Cryptophycin Payload, Heart, Mean [20]: BLQ
Concentration of Cryptophycin Payload, Kidney, Mean [20]: 3.79 ng/g
Concentration of Cryptophycin Payload, Liver, Mean [20]: BLQ
Concentration of Cryptophycin Payload, Plasma, Mean [20]: BLQ
Concentration of Cryptophycin Payload, Small Intestine, Mean [20]: 2.31 ng/g
Concentration of Cryptophycin Payload, Tumor, Mean [20]: 0.335 ng/g
AUC(0-inf) of Cryptophycin Payload [21]: 129 ng·h/mL
AUC(0-t) of Cryptophycin Payload [21]: 128 ng·h/mL
CL of Cryptophycin Payload [21]: 51.8 mL/min/kg
Vss of Cryptophycin Payload [21]: 2.28 L/kg
t1/2 of Cryptophycin Payload [21]: 50.9 min
AUC(0-inf) of Cryptophycin Payload [22]: 154 ng·h/mL
AUC(0-t) of Cryptophycin Payload [22]: 153 ng·h/mL
CL of Cryptophycin Payload [22]: 43.3 mL/min/kg
Vss of Cryptophycin Payload [22]: 1.15 L/kg
t1/2 of Cryptophycin Payload [22]: 67.8 min
AUC(0-inf) of Cryptophycin Payload [23]: 36.4 ng·h/g
AUC(0-t) of Cryptophycin Payload [23]: 34.9 ng·h/g
t1/2 of Cryptophycin Payload [23]: 76.2 min
tmax of Cryptophycin Payload [23]: 4.8 min
TPI of Cryptophycin Payload (Small Intestine, Payload 0.4 mg/kg + CTX 16 mg/kg IV, AUC0-inf tissue/AUC0-inf plasma): 0.282 mL/g
AUC(0-t) of Cryptophycin Payload [24]: 81.6 ng·h/g
tmax of Cryptophycin Payload [24]: 4.98 min and 4.8 min
TPI of Cryptophycin Payload (Small Intestine, Payload 0.4 mg/kg IV alone, AUC0-6 h tissue/AUC0-6 h plasma): 0.268 mL/g and 0.268^c mL/g
AUC(0-t) of Cryptophycin Payload [25]: 42.7 ng·h/g
tmax of Cryptophycin Payload [25]: 4.8 min
TPI of Cryptophycin Payload (Tumor, Payload 0.4 mg/kg + CTX 16 mg/kg IV, AUC0-6 h tissue/AUC0-6 h plasma): 0.334 mL/g and 0.334^c mL/g
AUC(0-inf) of Cryptophycin Payload [26]: 28.8 ng·h/g
AUC(0-t) of Cryptophycin Payload [26]: 24.9 ng·h/g
t1/2 of Cryptophycin Payload [26]: 506 min
tmax of Cryptophycin Payload [26]: 4.98 min and 4.8 min
TPI of Cryptophycin Payload (Tumor, Payload 0.4 mg/kg IV alone, AUC0-inf tissue/AUC0-inf plasma): 0.187 mL/g
